The text below walks through data of patent USRE42890E1, “Furazanobenzimidazoles” (Basilea Pharmaceutica AG, priority 2003, dated 2011).

Read-outs that look alike come from different tables or passages of the source. A value given as a limit tells only on which side of the number the result lay.

The subject of one assay is Jurkat. The experiment in a line: MTS proliferation assay, Jurkat. Type of assay: cell-based, human. The settings on record: 72 h incubation, read-out: MTS proliferation assay IC 50 Jurkat. The essentials:
(§1)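 Absorbance at 492 nm after 3 h with MTS reagent gave proliferation. This followed 72 h compound exposure (final 0.3, 1, 3, 10 μM) at 37 °C and 7.5% CO2. Cells had been plated 24 h earlier in complete RPMI-1640 with 5% or 10% FCS.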
On the technique in general: Formazan colour is commonly taken as a measure of viable cells.

The subject of another assay is Jily. The experiment in a line: MTS proliferation assay, Jily. In kind it is cell-based. Particulars: 72 h incubation, read-out: MTS proliferation assay IC 50 Jily. An outline of the steps:
(§2)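 Antiproliferative read-out by MTS (3 h, A492) after 72 h compound exposure at final 0.3–10 μM (four concentrations). Cells were plated 24 h earlier in RPMI-1640 containing 5% or 10% FCS, cultured at 37 °C with 7.5% CO2.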

The subject of a further assay is HT1080. The experiment in a line: MTS proliferation assay, HT1080. In kind it is cell-based, human. Particulars: HT1080, 72 h incubation, read-out: MTS proliferation assay IC 50 HT1080. An outline of the steps:
as §1

Another assay concerns HeLa. As to the kind of experiment: MTS proliferation assay, HeLa. Type of assay: cell-based, human. The settings on record: 72 h incubation, read-out: MTS proliferation assay IC 50 HeLa. The essentials: as §1
In a further assay the test system is MRC5. The experiment in a line: MTS proliferation assay, MRC5. In kind it is cell-based. The settings on record: MRC5, 72 h incubation, read-out: MTS proliferation assay IC 50 MRC5. An outline of the steps: as §2
The test system of assay [1] is adherent cells or suspension cells. The experiment in a line: Hoechst 33342 nuclear staining (fraction of apoptotic nuclei). In kind it is cell-based. Further details: key: 0 relating to no activity; 1 relating to weak activity comprising less than 70% of the cells; score 2 relating to strong activity comprising more than 70% of the cells.

As for `CC(C)n1c(-c2nonc2N)nc2ccccc21` [A, reference compound], the IC50 with Jurkat, in the assay on Jily, in the assay on HT1080, with HeLa and in the assay with MRC5 was over 1000 nM in each case. Further, the “Hoechst 33342 nuclear staining score” value in assay [1] (H460, conc 3 μm) is recorded as 0; in assay [1] (H460, conc 10 μm) it was 0; in assay [1] (H460, conc 30 μm) it was 0; in assay [1] (HeLa, conc 3 μm) it was 0; in assay [1] (HeLa, conc 10 μm) it was 0; in assay [1] (HeLa, conc 30 μm), 0. Moreover, the “Hoechst 33342 nuclear staining score” value was 0 in assay [1] (Jily, conc 3 μm); 0 in assay [1] (Jily, conc 10 μm); 0 in assay [1] (Jily, conc 30 μm); 0 in assay [1] (Jurkat, conc 3 μm); 0 in assay [1] (Jurkat, conc 10 μm); 0 in assay [1] (Jurkat, conc 30 μm). Moreover, the “Hoechst 33342 nuclear staining score” value in assay [1] (MRC5, conc 3 μm) worked out at 0; in assay [1] (MRC5, conc 10 μm) it was 0; in assay [1] (MRC5, conc 30 μm) it was 0; in assay [1] (PBLs, conc 3 μm), 0; in assay [1] (PBLs, conc 10 μm), 0; in assay [1] (PBLs, conc 30 μm), 0.

Turning to `Nc1nonc1-c1nc2ccccc2n1CC(=O)c1ccc2c(c1)OCO2` [Example 45], the IC50 in the assay with Jurkat was 10 to 100 nM; in the assay on Jily it was 10 to 100 nM; in the assay with HT1080 it was 10 to 100 nM; in the assay on HeLa, 10 to 100 nM; in the assay on MRC5, 100 to 1000 nM. Also, the “Hoechst 33342 nuclear staining score” value was 0 in assay [1] (H460, conc 0.01 μm); 2 (score 2 relating to strong activity comprising more than 70% of the cells) in assay [1] (H460, conc 0.1 μm); 2 (score 2 relating to strong activity comprising more than 70% of the cells) in assay [1] (H460, conc 1 μm); 0 in assay [1] (HeLa, conc 0.01 μm); 1 (1 relating to weak activity comprising less than 70% of the cells) in assay [1] (HeLa, conc 0.1 μm); 2 (score 2 relating to strong activity comprising more than 70% of the cells) in assay [1] (HeLa, conc 1 μm). For the same molecule, the “Hoechst 33342 nuclear staining score” value in assay [1] (Jily, conc 0.01 μm) is 0; in assay [1] (Jily, conc 0.1 μm), 2 (score 2 relating to strong activity comprising more than 70% of the cells); in assay [1] (Jily, conc 1 μm), 2 (score 2 relating to strong activity comprising more than 70% of the cells); in assay [1] (Jurkat, conc 0.01 μm), 0; in assay [1] (Jurkat, conc 0.1 μm), 2 (score 2 relating to strong activity comprising more than 70% of the cells); in assay [1] (Jurkat, conc 1 μm) it was 2 (score 2 relating to strong activity comprising more than 70% of the cells). In addition, the “Hoechst 33342 nuclear staining score” value in assay [1] (MRC5, conc 0.01 μm) is on record as 0; in assay [1] (MRC5, conc 0.1 μm), 0; in assay [1] (MRC5, conc 1 μm), 2 (score 2 relating to strong activity comprising more than 70% of the cells); in assay [1] (PBLs, conc 0.01 μm) it was 0; in assay [1] (PBLs, conc 0.1 μm) it was 0; in assay [1] (PBLs, conc 1 μm), 0.

Regarding `N#CCCNc1nonc1-c1nc2ccccc2n1COc1ccc(Cl)cc1` [Example 93], the IC50 is 10 to 100 nM in the assay with Jurkat; 10 to 100 nM with Jily; 100 to 1000 nM in the assay with HT1080; 100 to 1000 nM in the assay on HeLa; 100 to 1000 nM in the assay with MRC5. In addition, the “Hoechst 33342 nuclear staining score” value in assay [1] (H460, conc 0.01 μm) is on record as 0; in assay [1] (H460, conc 0.1 μm), 1 (1 relating to weak activity comprising less than 70% of the cells); in assay [1] (H460, conc 1 μm) it was 2 (score 2 relating to strong activity comprising more than 70% of the cells); in assay [1] (HeLa, conc 0.01 μm) it was 0; in assay [1] (HeLa, conc 0.1 μm), 0; in assay [1] (HeLa, conc 1 μm), 2 (score 2 relating to strong activity comprising more than 70% of the cells). The “Hoechst 33342 nuclear staining score” value is reported as 0 in assay [1] (Jily, conc 0.01 μm); 2 (score 2 relating to strong activity comprising more than 70% of the cells) in assay [1] (Jily, conc 0.1 μm); 2 (score 2 relating to strong activity comprising more than 70% of the cells) in assay [1] (Jily, conc 1 μm); 0 in assay [1] (Jurkat, conc 0.01 μm); 2 (score 2 relating to strong activity comprising more than 70% of the cells) in assay [1] (Jurkat, conc 0.1 μm); 2 (score 2 relating to strong activity comprising more than 70% of the cells) in assay [1] (Jurkat, conc 1 μm). The “Hoechst 33342 nuclear staining score” value in assay [1] (MRC5, conc 0.01 μm) is given as 0; in assay [1] (MRC5, conc 0.1 μm), 0; in assay [1] (MRC5, conc 1 μm), 2 (score 2 relating to strong activity comprising more than 70% of the cells); in assay [1] (PBLs, conc 0.01 μm) it was 0; in assay [1] (PBLs, conc 0.1 μm), 0; in assay [1] (PBLs, conc 1 μm) it was 0.

For `COC(=O)CCNc1nonc1-c1nc2ccccc2n1CC(=O)c1ccc(Cl)cc1` [Example 9, 4-[1-(4-Chlorophenacyl)-1H-benzimidazol-2-yl]-furazan-3-yl-N-(2-methoxycarbonylethyl)-amine], the IC50 with Jurkat (Homo sapiens) fell in the range of 100 to 1000 nM; with Jily it was 100 to 1000 nM; in the assay on HT1080 (Homo sapiens, HT-1080), 100 to 1000 nM; with HeLa (Homo sapiens), 100 to 1000 nM; with MRC5 (Homo sapiens), 100 to 1000 nM. The “Hoechst 33342 nuclear staining score” value in assay [1] (H460, conc 0.01 μm) is on record as 0; in assay [1] (H460, conc 0.1 μm) it was 0; in assay [1] (H460, conc 1 μm), 0; in assay [1] (HeLa, conc 0.01 μm) it was 0; in assay [1] (HeLa, conc 0.1 μm), 0; in assay [1] (HeLa, conc 1 μm) it was 2 (score 2 relating to strong activity comprising more than 70% of the cells). Also, the “Hoechst 33342 nuclear staining score” value in assay [1] (Jily, conc 0.01 μm) is given as 0; in assay [1] (Jily, conc 0.1 μm), 0; in assay [1] (Jily, conc 1 μm), 2 (score 2 relating to strong activity comprising more than 70% of the cells); in assay [1] (Jurkat, conc 0.01 μm) it was 0; in assay [1] (Jurkat, conc 0.1 μm) it was 0; in assay [1] (Jurkat, conc 1 μm), 2 (score 2 relating to strong activity comprising more than 70% of the cells). For the same molecule, the “Hoechst 33342 nuclear staining score” value was 0 in assay [1] (MRC5, conc 0.01 μm); 0 in assay [1] (MRC5, conc 0.1 μm); 2 (score 2 relating to strong activity comprising more than 70% of the cells) in assay [1] (MRC5, conc 1 μm); 0 in assay [1] (PBLs, conc 0.01 μm); 0 in assay [1] (PBLs, conc 0.1 μm); 2 (score 2 relating to strong activity comprising more than 70% of the cells) in assay [1] (PBLs, conc 1 μm).
